The record followed here is ChEMBL document CHEMBL3272031, “Inhibition of dihydrofolate reductase. Structure-activity correlations of quinazolines” (J Med Chem, 1976).

This assay addresses Dihydrofolate reductase (Rattus norvegicus) (UniProt Q920D2).
In turn, `Nc1nc(N)c2cc(NC(=O)Cc3ccc(Cl)c(Cl)c3)ccc2n1` showed a log(1/C) of 7.51. Next, `Nc1nc(O)c2cc(S(=O)(=O)c3ccc4ccccc4c3)ccc2n1`: 7.96. As to `Nc1nc(O)c2cc(S(=O)(=O)c3ccc(Cl)c(Cl)c3)ccc2n1`, the log(1/C) was found to be 7.12. `Cc1c(NC(=O)Cc2cccc(Br)c2)ccc2nc(N)nc(N)c12` registered a log(1/C) of 7.47. Compound `Nc1nc(N)c2c(Cl)c(Br)ccc2n1` displayed a log(1/C) of 7. With `Oc1nc(S)nc2ccc(Sc3ccc4ccccc4c3)cc12` the figure was 5; with `O=c1[nH]cnc2ccccc12`, 3.62; with `Nc1nc(N)c2cc(S(=O)(=O)c3ccc4ccccc4c3)ccc2n1`, 8.4. The compound `Nc1nc(N)c2cc(NC(=O)Cc3cccc(C(F)(F)F)c3)ccc2n1` gave a log(1/C) of 7.02. `Nc1nc2ccccc2c(=O)[nH]1` showed a log(1/C) of 4.31. The compound `Nc1nc(N)c2c(Cl)c(NC(=O)COc3ccc4ccccc4c3)ccc2n1` showed a log(1/C) of 7.85. `Nc1nc(N)c2c([S+]([O-])c3ccc4ccccc4c3)cccc2n1` (stereo unspecified): the log(1/C) was found to be 4.35.

In the case of `Nc1nc(N)c2c(Cl)c(NC(=O)Cc3ccc(Cl)c(Cl)c3)ccc2n1`, the log(1/C) was determined as 7.62. With `Cc1cccc2nc(N)nc(N)c12` the figure was 6.09; with `Nc1ncnc2ccccc12`, 3.09. `Nc1nc(N)c2cc(S(=O)(=O)c3ccc(Cl)c(Cl)c3)ccc2n1` registered a log(1/C) of 8.05. With `Nc1nc(O)c2c(Sc3ccc4ccccc4c3)cccc2n1` the figure was 6.15.

`Nc1ncnc2ccc(Sc3ccc4ccccc4c3)cc12` registered a log(1/C) of 4.68. The compound `Nc1nc(N)c2c(CCc3ccc4ccccc4c3)cccc2n1` displayed a log(1/C) of 7.7. Next, `Cc1c(NC(=O)Cc2cccc(C(F)(F)F)c2)ccc2nc(N)nc(N)c12`: 7.23; `Nc1nc(N)c2c(Cl)c(N)ccc2n1`: 6.18; `CC1CCc2nc(N)nc(O)c2C1` (stereo unspecified): 4.26. In the case of `Nc1nc(N)c2cc([S+]([O-])c3ccc4ccccc4c3)ccc2n1` (stereo unspecified), the log(1/C) came out at 8.15. `Nc1nc(N)c2cc(NCc3ccc(Cl)c(Cl)c3)ccc2n1` registered a log(1/C) of 7.74. Take `Cc1cccc2nc(N)nc(O)c12`: the log(1/C) turned out to be 4.8. The compound `Nc1nc(N)c2c(Cl)c(NC(=O)Cc3cccc(Br)c3)ccc2n1` gave a log(1/C) of 8.12.

`Nc1nc(N)c2cc(CNC(=O)c3ccc4ccccc4c3)ccc2n1` yielded a log(1/C) of 7. With `NCc1ccc2nc(N)nc(N)c2c1` the figure was 5.03; with `Nc1nc(N)c2c(Cl)c(NC(=O)COc3ccc(Cl)c(Cl)c3)ccc2n1`, 7.64; with `Sc1nc(S)c2cc(Sc3ccc4ccccc4c3)ccc2n1`, 5.05. Consider `Nc1nc(N)c2c(Cl)c(NC(=O)CCc3ccc(Cl)cc3)ccc2n1`, for which the log(1/C) is 7.44.

The compound `Nc1ccc2nc(N)nc(N)c2c1` showed a log(1/C) of 4.57. Next, `c1ccc2ncncc2c1`: 2.26; `Nc1nc(N)c2c(n1)CCCC2`: 5.13. With `Nc1nc(S)nc2ccccc12`, the log(1/C) stood at 3.72. `Nc1nc(N)c2c(Cl)c(NC(=O)Cc3cccc(C(F)(F)F)c3)ccc2n1` showed a log(1/C) of 7.64. Turning to `Cc1c(NC(=O)Cc2ccc(Br)cc2)ccc2nc(N)nc(N)c12`, the log(1/C) is 7.49. Consider `Nc1nc(S)c2ccccc2n1`, for which the log(1/C) came to 4.37.

`Nc1nc(O)c2cc([S+]([O-])c3ccc4ccccc4c3)ccc2n1` (stereo unspecified) yielded a log(1/C) of 7.38. In turn, `Nc1nc(N)c2c(Sc3ccc4ccccc4c3)cccc2n1` came in with a log(1/C) of 6.92. For the compound `CC(C(=O)Nc1ccc2nc(N)nc(N)c2c1Cl)c1ccccc1` (stereo unspecified), the log(1/C) was found to be 7.77. `O=c1[nH]c(=S)c2cc(Sc3ccc4ccccc4c3)ccc2[nH]1` gave a log(1/C) of 5.24. `Nc1nc(N)c2c(S(=O)(=O)c3ccc4ccccc4c3)cccc2n1`: the log(1/C) was found to be 4.82. In turn, `Nc1nc(O)c2cc(Sc3ccc(Cl)c(Cl)c3)ccc2n1` showed a log(1/C) of 6.92.

Regarding `Nc1nc(N)c2c(CSc3ccc(Cl)cc3)cccc2n1`, the log(1/C) is 7.7. `Cc1c(NC(=O)Cc2ccc3ccccc3c2)ccc2nc(N)nc(N)c12` showed a log(1/C) of 8.38. On to `Nc1nc(N)c2cc(Sc3cccc(C(F)(F)F)c3)ccc2n1`, for which the log(1/C) came out at 7.44. With `Nc1nc(O)c2cc(Sc3ccc4ccccc4c3)ccc2n1` the figure was 7.35. The compound `Nc1nc(N)c2c([S+]([O-])c3ccc(Cl)c(Cl)c3)cccc2n1` (stereo unspecified) came in with a log(1/C) of 4.26. With `Nc1nc(S)c2cc(S(=O)(=O)c3ccc4ccccc4c3)ccc2n1` the figure was 7.6; with `Nc1nc(O)nc2ccc(Sc3ccc4ccccc4c3)cc12`, 5.77; with `Nc1nc(O)nc2ccccc12`, 4.02. The compound `Nc1nc(N)c2cc(NC(=O)CCc3ccc(Cl)cc3)ccc2n1` had a log(1/C) of 7.33. For the compound `Cc1ccc2nc(N)nc(O)c2c1`, the log(1/C) was 4.44. With `Nc1nc(N)c2c(Cl)cccc2n1` the figure was 6.25; with `Nc1nc(O)c2c(Cl)cccc2n1`, 4.66; with `Nc1nc(N)c2cc(Cl)ccc2n1`, 5.4. Next, `Nc1nc(N)c2cc(Sc3ccc4ccccc4c3)ccc2n1`: 8.15; `Nc1nc(O)c2c(n1)CCCC2`: 3.96.

Take `Cc1c(NC(=O)CCc2ccc(Cl)cc2)ccc2nc(N)nc(N)c12`: the log(1/C) stood at 7.48. In the case of `Nc1nc(N)c2c(/C=C\c3ccc4ccccc4c3)cccc2n1`, the log(1/C) is 6.52. With `Nc1nc(O)c2ccc(C(F)(F)F)cc2n1`, the log(1/C) worked out at 4.35. As to `Nc1ncnc2ccc([S+]([O-])c3ccc4ccccc4c3)cc12` (stereo unspecified), the log(1/C) amounted to 4.82. Regarding `Nc1nc(N)c2c(Sc3ccc(Cl)c(Cl)c3)cccc2n1`, the log(1/C) was determined as 6.8.

Take `Cc1ccc2nc(N)nc(N)c2c1`: the log(1/C) turned out to be 5.66.

Compound `Nc1nc(N)c2cc(Sc3ccc(Cl)c(Cl)c3)ccc2n1` came in with a log(1/C) of 7.96. In the case of `Cc1c(NC(=O)Cc2ccc(Cl)c(Cl)c2)ccc2nc(N)nc(N)c12`, the log(1/C) was determined as 7.77. Next, `Nc1nc(O)c2c(S(=O)(=O)c3ccc4ccccc4c3)cccc2n1`: 4.85; `Nc1nc(N)c2cc(NC(=O)Cc3ccc4ccccc4c3)ccc2n1`: 8.3; `Nc1nc(N)c2c(/C=C/c3ccc4ccccc4c3)cccc2n1`: 5.28. The compound `Cc1c(NC(=O)C(Sc2ccc3ccccc3c2)C(C)C)ccc2nc(N)nc(N)c12` (stereo unspecified) had a log(1/C) of 7.68. On to `CC(=O)Nc1nc(O)c2ccccc2n1`, for which the log(1/C) stood at 4.28. Take `Nc1nc(N)c2cc(C=O)ccc2n1`: the log(1/C) stood at 5. As to `Nc1nc(N)c2c(Cl)c(NC(=O)Cc3ccc4ccccc4c3)ccc2n1`, the log(1/C) worked out at 8.3. In turn, `Nc1nc(N)c2cc(CNC(=O)c3cccc(C(F)(F)F)c3)ccc2n1` came in with a log(1/C) of 6.59.

`Cc1c(NC(=O)COc2ccc3ccccc3c2)ccc2nc(N)nc(N)c12` came in with a log(1/C) of 7.82.

For `Nc1nc(N)c2cc(CNC(=O)c3ccc(Cl)c(Cl)c3)ccc2n1`, the log(1/C) came to 7. Regarding `Nc1nc(S)c2cc(Sc3ccc4ccccc4c3)ccc2n1`, the log(1/C) came to 6.64. In the case of `Nc1nc(N)c2cc(NC(=O)Cc3ccc(Cl)cc3)ccc2n1`, the log(1/C) stood at 7.64. With `O=c1[nH]c(=O)c2cc(Sc3ccc4ccccc4c3)ccc2[nH]1` the figure was 5.07; with `Nc1nc(N)c2c(Cl)c(NC(=O)Cc3ccc(Cl)cc3)ccc2n1`, 7.92; with `Nc1nc(N)c2c(S(=O)(=O)c3ccc(Cl)c(Cl)c3)cccc2n1`, 4.24. Take `CC(=O)Nc1nc(O)c2cc(S(=O)(=O)c3ccc4ccccc4c3)ccc2n1`: the log(1/C) was determined as 6.11. In turn, `Nc1nc(S)nc2ccc(Sc3ccc4ccccc4c3)cc12` showed a log(1/C) of 5.52. `Cc1c(NC(=O)CSc2ccc3ccccc3c2)ccc2nc(N)nc(N)c12` showed a log(1/C) of 8.27.

As for `Nc1ncnc2ccc(S(=O)(=O)c3ccc4ccccc4c3)cc12`, the log(1/C) turned out to be 5.47.
